For nine compounds, inhibition results are on record in patent publication US8343961B2, “Substituted heterocyclic compounds” (ArQule, Inc., priority 2009, dated 2013).

In assay [1] the target is T1, EphA8 (Homo sapiens, UniProt P29322).
T1 sequence (P29322 28-1005): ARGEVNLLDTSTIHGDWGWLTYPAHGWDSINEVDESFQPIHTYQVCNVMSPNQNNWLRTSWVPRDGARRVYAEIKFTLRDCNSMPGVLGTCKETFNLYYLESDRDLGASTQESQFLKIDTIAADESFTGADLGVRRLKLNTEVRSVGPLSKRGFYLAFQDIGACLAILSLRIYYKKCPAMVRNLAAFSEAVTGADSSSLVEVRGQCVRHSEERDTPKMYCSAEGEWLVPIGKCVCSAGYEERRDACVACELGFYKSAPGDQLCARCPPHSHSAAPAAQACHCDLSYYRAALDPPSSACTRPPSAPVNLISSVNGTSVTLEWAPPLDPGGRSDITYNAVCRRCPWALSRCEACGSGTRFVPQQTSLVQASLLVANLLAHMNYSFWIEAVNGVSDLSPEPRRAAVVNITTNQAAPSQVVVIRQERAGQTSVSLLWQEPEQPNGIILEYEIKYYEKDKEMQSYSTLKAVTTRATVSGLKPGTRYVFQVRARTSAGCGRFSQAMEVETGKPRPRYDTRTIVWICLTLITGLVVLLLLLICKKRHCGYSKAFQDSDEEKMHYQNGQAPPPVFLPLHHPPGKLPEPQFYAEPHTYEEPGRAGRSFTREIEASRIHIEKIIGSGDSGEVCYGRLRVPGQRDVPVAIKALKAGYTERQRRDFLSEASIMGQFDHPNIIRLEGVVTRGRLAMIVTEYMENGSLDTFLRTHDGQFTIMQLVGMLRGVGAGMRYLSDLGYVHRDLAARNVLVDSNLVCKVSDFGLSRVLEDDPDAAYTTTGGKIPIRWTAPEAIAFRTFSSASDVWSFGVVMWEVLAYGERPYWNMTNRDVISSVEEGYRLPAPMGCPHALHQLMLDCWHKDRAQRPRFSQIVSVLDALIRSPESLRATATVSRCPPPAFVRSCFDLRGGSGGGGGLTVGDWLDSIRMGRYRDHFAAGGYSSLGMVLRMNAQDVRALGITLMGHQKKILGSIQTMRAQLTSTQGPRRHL
In words: EphA8 Kinase Activity Assay. Format: biochemical. The note with it: read-out: EphA8, % INH, at 30 uM. The procedure:
Nunc Maxisorb plates are coated with streptavidin by overnight incubation with 100 μL per well of 1 μg/ml Streptavidin in DPBS. Prior to the start of the experiment, the plates are washed with TBST (3×200 μL) and blocked for at least 1 hour by adding 150 μL of 5% BSA/TBST. The plates are washed with TBST (3×200 μL/well) and left dry immediately before the capture step.
The test articles and control (Staurosporine) are prepared using the following assay buffer @ 3× desired final concentration (50 mM Tris-HCl, 0.02 mg/ml BSA, 10 mM MgCl2, 0.1 mM Na3VO4, 1 mM EGTA, 12.5 μM ATP, 0.01% NP-40, 1 mM DTT in 10% glycerol/water). In a reaction plate are added rapidly 20 μl test article (or control) and 20 μl EphA8 (0.12 ng/μl final concentration). The plate is incubated for 15 minutes. To the reaction plate is added 20 μl of Pyk-2 (0.75 ng/μl final concentration). The plate is incubated at room temperature for one hour. From the reaction plate, 50 μl is transferred to the streptavidin coated plate. The capture plate is incubated at room temperature for 30 minutes, then washed 6× with TBST. To the capture plate is added 100 μL/well of Cell Signaling anti-phospho tyrosine at a dilution of 1:3000 in 2% BSA/TBST. The plate is incubated for one hour at room temperature then washed 6× with TBST. To the capture plate is added 100 μL/well of Alkaline Phosphatase Tagged Goat anti Mouse Antibody at a dilution of 1:4000 in 2% BSA/TBST. The plate is incubated for one hour at room temperature then washed 6× with TBST. The fluorescent readout is initiated by the addition of 100 μl/well of Attophos reagent (6 mg/10 mL). The reading is done on the Perkin Elmer Envision system.

The target of assay [2] is RET kinase (Homo sapiens, UniProt P07949). In words: RET Kinase Activity Assay. The note with it: read-out: Ret, % INH, at 30 uM. The assay is classed as biochemical. In outline:
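RET […] was preincubated with compound for 15 min, then phosphorylated biotinylated Pyk-2 substrate for 1 h at room temperature with 75 μM ATP and 10 mM MgCl2. Product was captured on streptavidin plates and detected with anti-phosphotyrosine, an AP-tagged secondary antibody and Attophos fluorescence.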

RET kinase, sequence (P07949 29-1114): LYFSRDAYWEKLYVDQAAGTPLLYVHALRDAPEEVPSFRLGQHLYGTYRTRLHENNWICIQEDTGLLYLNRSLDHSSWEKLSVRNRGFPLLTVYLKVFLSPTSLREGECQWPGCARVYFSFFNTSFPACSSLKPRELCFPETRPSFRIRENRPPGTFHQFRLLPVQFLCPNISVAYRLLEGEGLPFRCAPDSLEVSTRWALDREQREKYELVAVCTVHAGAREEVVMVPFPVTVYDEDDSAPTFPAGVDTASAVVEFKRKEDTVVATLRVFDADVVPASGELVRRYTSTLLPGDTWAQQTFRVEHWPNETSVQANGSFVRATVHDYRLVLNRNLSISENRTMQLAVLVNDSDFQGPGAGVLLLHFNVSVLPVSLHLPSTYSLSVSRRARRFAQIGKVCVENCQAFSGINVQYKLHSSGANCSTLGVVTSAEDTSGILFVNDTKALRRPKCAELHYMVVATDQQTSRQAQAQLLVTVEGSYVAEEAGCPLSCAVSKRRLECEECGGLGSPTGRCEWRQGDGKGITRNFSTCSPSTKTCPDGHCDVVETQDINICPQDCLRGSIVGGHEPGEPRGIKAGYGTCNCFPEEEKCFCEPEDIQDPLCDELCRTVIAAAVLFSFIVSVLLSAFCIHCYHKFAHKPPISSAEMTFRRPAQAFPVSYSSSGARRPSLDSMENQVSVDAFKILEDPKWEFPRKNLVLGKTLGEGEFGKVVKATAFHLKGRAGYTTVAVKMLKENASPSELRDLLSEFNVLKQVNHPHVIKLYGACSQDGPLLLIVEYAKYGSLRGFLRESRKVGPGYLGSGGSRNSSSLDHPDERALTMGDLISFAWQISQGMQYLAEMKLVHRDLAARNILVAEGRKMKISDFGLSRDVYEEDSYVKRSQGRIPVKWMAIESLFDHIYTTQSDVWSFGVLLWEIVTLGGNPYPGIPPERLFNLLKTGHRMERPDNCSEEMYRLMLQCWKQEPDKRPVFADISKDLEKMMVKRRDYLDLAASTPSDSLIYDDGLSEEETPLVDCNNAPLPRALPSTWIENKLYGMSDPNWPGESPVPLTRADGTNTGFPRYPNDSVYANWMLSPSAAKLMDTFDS

For the compound `Nc1nc(N2CCN(CCCc3ccccc3)c3ccccc3C2)c2cn[nH]c2n1` [Compound 41, 4-[1-(3-phenylpropyl)-1,2,3,5-tetrahydro-4H-1,4-benzodiazepin-4-yl]-1H-pyrazolo[3,4-d]pyrimidin-6-amine], the inhibition at 30 µM in assay [1] and in assay [2] was below 50% in each case.
Turning to `Nc1nc(N2CCN(Cc3ccc(Cl)c(Cl)c3)c3ccccc3C2)c2nc[nH]c2n1` [Compound 42, 6-[1-(3,4-dichlorobenzyl)-1,2,3,5-tetrahydro-4H-1,4-benzodiazepin-4-yl]-9H-purin-2-amine], the inhibition at 30 µM in assay [1] and in assay [2] was below 50% in each case.
On to `Nc1nc(N2CCN(Cc3ccc(Cl)c(Cl)c3)c3ccccc3C2)c2cn[nH]c2n1` [Compound 43, 4-[1-(3,4-dichlorobenzyl)-1,2,3,5-tetrahydro-4H-1,4-benzodiazepin-4-yl]-1H-pyrazolo[3,4-d]pyrimidin-6-amine], for which the inhibition at 30 µM in assay [1] and in assay [2] was 50 to 79% throughout.
As to `Cc1ccc(CCCN2CCN(c3nc(N)nc4[nH]cnc34)Cc3ccccc32)cc1` [Compound 44, 6-{1-[3-(4-methylphenyl)propyl]-1,2,3,5-tetrahydro-4H-1,4-benzodiazepin-4-yl}-9H-purin-2-amine], the inhibition at 30 µM in assay [1] and in assay [2] was below 50% throughout.
Consider `Cc1ccc(CCCN2CCN(c3nc(N)nc4[nH]ncc34)Cc3ccccc32)cc1` [Compound 45, 4-{1-[3-(4-methylphenyl)propyl]-1,2,3,5-tetrahydro-4H-1,4-benzodiazepin-4-yl}-1H-pyrazolo[3,4-d]pyrimidin-6-amine], for which the inhibition at 30 µM in assay [1] and in assay [2] was 50 to 79% in each case.
In the case of `Nc1nc(N2CCN(Cc3ccc(F)c(F)c3)c3ccccc3C2)c2nc[nH]c2n1` [Compound 46, 6-[1-(3,4-difluorobenzyl)-1,2,3,5-tetrahydro-4H-1,4-benzodiazepin-4-yl]-9H-purin-2-amine], the inhibition at 30 µM in assay [1] was below 50%; in assay [2] it was 50 to 79%.
The matching figures for `Nc1nc(N2CCN(Cc3ccc(F)c(F)c3)c3ccccc3C2)c2cn[nH]c2n1` [Compound 47, 4-[1-(3,4-difluorobenzyl)-1,2,3,5-tetrahydro-4H-1,4-benzodiazepin-4-yl]-1H-pyrazolo[3,4-d]pyrimidin-6-amine]: below 50% and 50 to 79%.
The matching figures for `COc1cc2c(cc1OC)C(c1cccc(Cl)c1F)N(c1nc(N)nc3[nH]cnc13)CC2` (stereo not drawn) [Compound 49, 6-[1-(3-chloro-2-fluorophenyl)-6,7-dimethoxy-3,4-dihydroisoquinolin-2(1H)-yl]-9H-purin-2-amine]: below 50% and below 50%.
Turning to `COc1cc2c(cc1OC)C(CCc1ccccc1)N(c1nc(N)nc3[nH]ncc13)CC2` (stereo not drawn) [Compound 51, 4-[6,7-dimethoxy-1-(2-phenylethyl)-3,4-dihydroisoquinolin-2(1H)-yl]-1H-pyrazolo[3,4-d]pyrimidin-6-amine], the inhibition at 30 µM in assay [1] is below 50%; in assay [2], 50 to 79%.
